Each structure is given as a SMILES string.

This is an account of results in PubChem BioAssay AID1508612.

This data set in a line: passive permeability, PAMPA, ADME assay (AID 1508612). The conditions noted are these: pH 7.4, 30.0 min, 50.0 µM. For orientation: The PAMPA barrier holds no transporters, so it reflects passive diffusion.

As usually defined, the Papp is the rate of passage across a membrane or cell layer, normalised by area and donor concentration. `CCOC(=O)N1CCN(Cc2nc3c(c(=O)n(C)c(=O)n3C)n2Cc2cccc(C)c2)CC1` came in with a Papp of 477 ×10⁻⁶ cm/s.

`CC(C)(C)c1ccc(C(=O)N2CC(=O)Nc3ccc(F)cc3C2c2ccc(F)cc2)cc1` (stereo not drawn) had an apparent permeability (Papp) above 1000 ×10⁻⁶ cm/s.

`Brc1ccc(-c2csc(N3CCNCC3)n2)cc1` registered a Papp above 1000 ×10⁻⁶ cm/s.

Take `Nc1c(C(=O)Nc2ccc(Cl)c(C(F)(F)F)c2)sc2nc3c(cc12)N1CCC3CC1`: the apparent permeability coefficient (Papp) is above 1000 ×10⁻⁶ cm/s.

`Oc1cccc2nc3ccccc3nc12` gave a Papp of 513 ×10⁻⁶ cm/s.

`COc1ccc(OC)c(N2C(=O)C(Cl)=C(N3CCCCC3)C2=O)c1`: the Papp is above 1000 ×10⁻⁶ cm/s.

`Cn1c(CN2CCCCC2)nc2cc(NC(=O)c3cccc(Br)c3)ccc21` came in with an apparent permeability (Papp) above 1000 ×10⁻⁶ cm/s.

In turn, `Cc1nc(-c2ccco2)cc([C@H]2CN3CC[C@H]2C[C@@H]3CNC(=O)NC2CCCCC2)n1` gave a Papp of 475 ×10⁻⁶ cm/s.

`NC(=O)C1CCN(c2nc(-c3cccc4sc5ccccc5c34)cs2)CC1`: the Papp was found to be 364 ×10⁻⁶ cm/s.

The compound `O=S(=O)(Nc1nccs1)c1ccc(NCc2cccc(F)c2O)cc1` registered a Papp of 2.11 ×10⁻⁶ cm/s.

`COc1ccc2c3c([nH]c2c1)C1CC2C(CC(O)C(OC)C2CO)CN1CC3` (stereo not drawn) registered an apparent permeability coefficient (Papp) of 3.2 ×10⁻⁶ cm/s.

`CN(Cc1cnc2nc(N)nc(N)c2n1)c1ccc(C(=O)N[C@@H](CCC(=O)O)C(=O)O)cc1` gave a Papp of 5.39 ×10⁻⁶ cm/s.

Take `CCOc1ccc(CCNC(=O)c2cc3ccccc3n2Cc2ccccn2)cc1OCC`: the Papp was above 1000 ×10⁻⁶ cm/s.

The compound `Fc1cc(Nc2nc(-c3ccncc3)nc3ccccc23)ccc1-c1cccc(OC(F)F)c1` yielded a Papp of 30.1 ×10⁻⁶ cm/s.

`CCOc1ccc(CNc2ccc3c(c2)ncn3C)cc1` registered a Papp above 1000 ×10⁻⁶ cm/s.

Compound `CCOc1ccc(N2CC(c3nc(-c4ccccn4)no3)CC2=O)cc1` (stereo not drawn) displayed a Papp of 297 ×10⁻⁶ cm/s.

As to `CC(=O)Nc1ccc(OCc2cn(CC(=O)c3ccc(O)cc3)nn2)cc1`, the Papp was below 1 ×10⁻⁶ cm/s.

In the case of `Cc1ccccc1C(=O)N1CCc2cc(-c3nc(NC(=O)Cc4ccccc4)sc3C)ccc21`, the Papp was above 1000 ×10⁻⁶ cm/s.

For `CCN(CC)S(=O)(=O)c1ccc(N2CCCC2)c(NS(=O)(=O)c2ccc(C)cc2)c1`, the Papp stood at 253 ×10⁻⁶ cm/s.

Compound `O=c1cc(CSc2ccc(Cl)cc2)nc(-c2ccccn2)[nH]1` showed a Papp above 1000 ×10⁻⁶ cm/s.

As for `CN1CCCN(C(c2ccccc2)c2ccc(Cl)cc2)CC1` (stereo not drawn), the Papp came out at 652 ×10⁻⁶ cm/s.

As for `O=c1cc(CN2CCCN(c3ccc(C(F)(F)F)cn3)CC2)nc2ccccn12`, the apparent permeability (Papp) was above 1000 ×10⁻⁶ cm/s.

Compound `Cc1ccc(C(=O)Nc2ccc(CN3CCN(C)CC3)c(C(F)(F)F)c2)cc1C#Cc1cnc2cccnn12` yielded an apparent permeability coefficient (Papp) above 1000 ×10⁻⁶ cm/s.

`CC(C=CC(=O)NO)=C[C@@H](C)C(=O)c1ccc(N(C)C)cc1`: the Papp turned out to be 335 ×10⁻⁶ cm/s.

For `COc1ccc(C2=Nn3c([n+](C)c4ccccc43)SC2)cc1`, the Papp was below 1 ×10⁻⁶ cm/s.

For `CCC(C)N(C)C(=O)c1cc2ccccc2c(-c2ccccc2Cl)n1` (stereo not drawn), the apparent permeability (Papp) was above 1000 ×10⁻⁶ cm/s.

On to `CC(C)CNc1ccnc(NCc2csc(-c3ccccc3)n2)n1`, for which the Papp is above 1000 ×10⁻⁶ cm/s.

In turn, `O=C(c1nc(-c2ccc(Cl)nc2)c2ccccn12)N1CCCC1` yielded a Papp above 1000 ×10⁻⁶ cm/s.

Consider `CC[C@@]1(O)C(=O)OCc2c1cc1n(c2=O)Cc2c-1nc1ccccc1c2CCNC(C)C`, for which the Papp is below 1 ×10⁻⁶ cm/s.

Regarding `CCc1cccc(NC(=O)CSc2nc3ccccc3nc2N2CCCCC2)c1`, the Papp worked out at 322 ×10⁻⁶ cm/s.

Consider `COc1ccc(-c2cnc(N3CCC(C(N)=O)CC3)s2)cc1OC`, for which the apparent permeability (Papp) is 336 ×10⁻⁶ cm/s.

On to `CCC(CC)c1cc([C@H]2CN3CC[C@H]2C[C@@H]3CNS(=O)(=O)c2cccs2)nc(-c2ccncc2)n1`, for which the Papp was above 1000 ×10⁻⁶ cm/s.

`COc1ccc(-n2c(C)c(C(C)=O)c3ccccc32)cc1` registered a Papp above 1000 ×10⁻⁶ cm/s.

The compound `CCc1ccc(S(=O)(=O)Nc2cnccc2C(=O)Nc2nc(-c3ccccc3)cs2)cc1` displayed a Papp of 300 ×10⁻⁶ cm/s.

`Cc1ccc(-c2nn(C(C)(C)C)c3ncnc(N)c23)cc1` yielded a Papp of 825 ×10⁻⁶ cm/s.

As for `COC(=O)CNC(=O)c1nc(-c2ccc([S+](C)(=O)[O-])cc2)c2ccccn12`, the Papp came to 330 ×10⁻⁶ cm/s.

Take `OC1(c2ccc(Cl)cc2)CCN(Cc2c[nH]c3ccccc23)CC1`: the apparent permeability coefficient (Papp) is above 1000 ×10⁻⁶ cm/s.

Consider `Cc1c(-c2cccc3c(CCCOc4cccc5ccccc45)c(C(=O)O)n(Cc4cccnc4)c23)c(COc2ccc(N3CCN([S+](=O)([O-])N(C)C)CC3)cc2)nn1C`, for which the Papp worked out at 244 ×10⁻⁶ cm/s.

Turning to `CCOC(=O)N1CCc2c(sc(NCc3ccc(N(C)C)cc3)c2C(=O)Nc2ccc(OC)cc2)C1`, the Papp stood at 58.5 ×10⁻⁶ cm/s.

In turn, `Cc1cc(-c2nnc3n2CCCCC3)c(C)n1-c1ccncc1` yielded a Papp of 24.5 ×10⁻⁶ cm/s.

Consider `CC(=O)c1c(C)[nH]c(C(=O)Nc2cccc(S(=O)(=O)Nc3ccc(Br)cc3)c2)c1C`, for which the Papp stood at 288 ×10⁻⁶ cm/s.

As for `Cc1sc(NC(=O)Cc2ccc3c(c2)OCO3)nc1-c1ccc2c(c1)CCN2C(=O)c1ccccc1F`, the Papp amounted to 1.4 ×10⁻⁶ cm/s.

On to `Oc1cccc(-c2nc(N3CCOCC3)c3oc4ncccc4c3n2)c1`, for which the Papp amounted to 537 ×10⁻⁶ cm/s.

In turn, `Nc1cc2nc3ccccc3oc-2cc1=O` came in with a Papp of 106 ×10⁻⁶ cm/s.

Compound `CCOc1ccc(S(=O)(=O)NCc2cccnc2)cc1NC(=O)c1ccccc1F` yielded a Papp of 99 ×10⁻⁶ cm/s.

The compound `NC1CCC(Nc2nc(Nc3ccc(C(=O)N4CCCCC4)cc3)c3ncn(-c4cccc(F)c4)c3n2)CC1` (stereo not drawn) displayed an apparent permeability (Papp) of 21.8 ×10⁻⁶ cm/s.

For the compound `Cc1cc(NS(=O)(=O)c2ccc(NC(=O)c3oc4ccccc4c3C)cc2)nc(C)n1`, the Papp was 282 ×10⁻⁶ cm/s.

For the compound `CC(=O)c1c(C)[nH]c(C(=O)Nc2cccc(S(=O)(=O)N3CCCCC3)c2)c1C`, the Papp was above 1000 ×10⁻⁶ cm/s.

With `Cc1ccc(S(=O)(=O)Nc2cnccc2C(=O)Nc2nc(-c3cccnc3)cs2)cc1`, the apparent permeability (Papp) is 104 ×10⁻⁶ cm/s.

`CC(C)NC(=O)c1nc(-c2ccc(Cl)nc2)c2ccccn12` came in with a Papp above 1000 ×10⁻⁶ cm/s.

In the case of `Cc1ccc(-n2nc3c(N4CCCC(C(=O)NCc5ccccc5C)C4)nnc(C)c3c2C)cc1` (stereo not drawn), the Papp is 173 ×10⁻⁶ cm/s.

`Clc1ccc(Nc2nc(-c3ccncc3)nc3ccccc23)cc1Cl` had an apparent permeability (Papp) of 76.1 ×10⁻⁶ cm/s.

`CCN1CCN(c2ccc(Nc3ccc(-c4ccc(C(N)=O)cc4)n4ncnc34)cc2)CC1` returned a Papp of 747 ×10⁻⁶ cm/s.

The compound `Cc1ccc(S(=O)(=O)NC2CCCCC2)cc1` displayed a Papp of 206 ×10⁻⁶ cm/s.

For the compound `CN(C)CCNC(=O)c1nc(-c2ccccc2)cc2[nH]ccc12`, the Papp was found to be 838 ×10⁻⁶ cm/s.

The compound `Cc1cnc(N2CCC(C(N)=O)CC2)nc1-c1cccc(N(C)C)c1` displayed a Papp of 666 ×10⁻⁶ cm/s.

On to `CC(=O)Nc1ccc(NC(=O)C(NS(=O)(=O)c2ccc(Br)s2)c2ccccc2)cc1` (stereo not drawn), for which the Papp was found to be 224 ×10⁻⁶ cm/s.

For `CCn1ncc(NC(=O)Cn2ncc3cc(-c4cccc(OC)c4)ccc32)n1`, the Papp is above 1000 ×10⁻⁶ cm/s.

In turn, `O=c1cc(-c2ccc(O)c(O)c2)oc2cc(O)cc(O)c12` returned a Papp of 120 ×10⁻⁶ cm/s.

On to `Cc1ccc(-c2cc(C(=O)Nc3ccccn3)c3ccccc3n2)cc1`, for which the Papp was above 1000 ×10⁻⁶ cm/s.

Compound `O=S(=O)(c1ccc(Cl)cc1)c1ccccn1` had a Papp of 407 ×10⁻⁶ cm/s.

`CC1CCC(n2c3cnccc3c3cnc(Nc4ccc5c(n4)CCN(C(=O)CO)C5)nc32)CC1` (stereo not drawn) displayed a Papp of 135 ×10⁻⁶ cm/s.

As for `Cc1ccc(-c2cc(C(=O)Nc3ccc(C#N)cc3)c3ccccc3n2)cc1C`, the Papp was 285 ×10⁻⁶ cm/s.

For the compound `Cc1cc(S(=O)(=O)Nc2cnccc2C(=O)Nc2nc(-c3ccccc3)cs2)c(C)o1`, the Papp was 768 ×10⁻⁶ cm/s.

In turn, `COc1ccc(CN2CCc3nc(N4CCN(c5ccc(F)cc5)CC4)ncc3C2)c(OC)c1OC` yielded a Papp above 1000 ×10⁻⁶ cm/s.

As for `Cc1cc(C)c2nc(-c3ccccn3)cc(C(=O)Nc3ccc(S(=O)(=O)Nc4onc(C)c4C)cc3)c2c1`, the apparent permeability coefficient (Papp) was found to be 240 ×10⁻⁶ cm/s.

`COc1cccc(CNc2ccc(S(=O)(=O)Nc3ncc(-c4ccccc4)s3)cc2)c1O` displayed a Papp of 36.6 ×10⁻⁶ cm/s.

In the case of `COc1cccc(N2CCN(c3ncc4c(n3)CCN(Cc3ccc(Br)cc3)C4)CC2)c1`, the Papp worked out at 25 ×10⁻⁶ cm/s.

Compound `Cc1ccc(-c2c(CN3CCN(c4cccc(C(F)(F)F)c4)CC3)csc2C)cc1` came in with a Papp below 1 ×10⁻⁶ cm/s.

For the compound `CNc1oc(-c2cccc3ccccc23)nc1C(=O)OC`, the Papp is above 1000 ×10⁻⁶ cm/s.

In turn, `Nc1cc(-c2nc(Nc3ccc(F)c(F)c3)c3ccccc3n2)ccn1` came in with a Papp above 1000 ×10⁻⁶ cm/s.

Turning to `CC(C)Oc1cccc(-c2cnc(N3CCC(C(N)=O)CC3)s2)c1`, the Papp worked out at 810 ×10⁻⁶ cm/s.

With `Cc1cccc(N2CCN(C(=O)Cn3ncc4c3-c3ccccc3OC4)CC2)c1C`, the Papp was 676 ×10⁻⁶ cm/s.

`CC(=O)Nc1nc(C)c(-c2ccc(Cl)c(S(=O)(=O)NCCO)c2)s1` had a Papp of 12.1 ×10⁻⁶ cm/s.

In the case of `CS(=O)(=O)c1ccc2nc(NC(=O)C3CC3)sc2c1`, the Papp is 106 ×10⁻⁶ cm/s.

With `Cc1cc(/C=C2/C(=O)Nc3ccccc32)cc(C)c1O`, the Papp is 976 ×10⁻⁶ cm/s.

On to `CN1CCN(c2ccc(Nc3c4ccccc4nc4ccccc34)cc2)CC1`, for which the Papp was above 1000 ×10⁻⁶ cm/s.

In turn, `CCCc1cc(C)[nH]c(=O)c1CNC(=O)c1cc(-c2ccc(N3CCN(C(C)C)CC3)nc2)cc2c1cnn2C(C)C` showed a Papp above 1000 ×10⁻⁶ cm/s.

The compound `O=C(Nc1ccc(F)cc1F)c1cc(-c2ccc[nH]2)n[nH]1` yielded a Papp of 103 ×10⁻⁶ cm/s.

In turn, `Nc1c(C(=O)N2CCCCC2)sc(=S)n1-c1ccccc1` registered a Papp above 1000 ×10⁻⁶ cm/s.

In turn, `COc1ccc(-n2nc(C3CCCN(C(=O)Cc4ccc(F)cc4)C3)[nH]c2=O)cc1` (stereo not drawn) showed a Papp of 851 ×10⁻⁶ cm/s.

The compound `Fc1ccc(-c2ccc(Nc3nc(-c4ccncc4)nc4ccccc34)cc2F)c(Cl)c1` registered a Papp of 20.9 ×10⁻⁶ cm/s.

`COc1ccccc1CNC(=O)CCCn1nc(C)c2c(C)n(-c3ccc(C)cc3)nc2c1=O` showed a Papp of 604 ×10⁻⁶ cm/s.

As for `CC(C)(C)OC(=O)N[C@@H](Cc1ccc(OS(=O)(=O)c2cccc3cnccc23)cc1)C(=O)N1CCCN(C(=O)OC(C)(C)C)CC1`, the apparent permeability coefficient (Papp) worked out at 818 ×10⁻⁶ cm/s.

The compound `O=C1Nc2c(Cl)cccc2/C1=C\c1cc(Cl)c(O)c(Cl)c1` had an apparent permeability coefficient (Papp) of 58.8 ×10⁻⁶ cm/s.

With `CCOc1ccc(CCNC(=O)c2cc3ncccc3n2Cc2cccc(C)n2)cc1OCC`, the Papp came to 491 ×10⁻⁶ cm/s.

`O=C(NC1CCCc2c1[nH]c1c(Cl)cccc21)c1ccc2c(c1)OCO2` (stereo not drawn) gave a Papp of 51 ×10⁻⁶ cm/s.

The compound `CCn1c(=O)cc(OCC(=O)N2CCN(c3cccc(Cl)c3)CC2)c2ccccc21` gave a Papp of 941 ×10⁻⁶ cm/s.

Take `c1ccc2c(Nc3ccc4nc[nH]c4c3)nc(-c3ccncc3)nc2c1`: the Papp stood at 16.7 ×10⁻⁶ cm/s.

In turn, `Cc1ccc(-c2cc(C(=O)Nc3ccc(-c4nn[nH]n4)cc3)c3ccccc3n2)cc1C` registered a Papp of 4.23 ×10⁻⁶ cm/s.

In turn, `Cc1cc(C)nc(NC(=S)N2CCN(c3nccc(C(F)(F)F)n3)CC2)c1` showed a Papp above 1000 ×10⁻⁶ cm/s.

`COc1cccc(CNc2ccc(S(=O)(=O)Nc3ccc(N4CCNCC4)cc3)cc2)c1O` showed a Papp above 1000 ×10⁻⁶ cm/s.

For the compound `O=c1cc(/C=C/c2c(F)cccc2Cl)[nH]c2ccccc12`, the Papp came to 205 ×10⁻⁶ cm/s.
